Test results taken from patent publication US7285541B2, “Treatment of melanoma by reduction in clusterin levels” (The University of British Columbia, priority 2002, dated 2007).
e = 2'-O-(2-methoxyethyl) (MOE); d = 2'-deoxy (DNA)

Columns and labels:
Mel Juso melanoma cells = test: Cell survival of Mel Juso melanoma cells (Neo or clusterin overexpression) in cisplatin, Cell-titer 96; assay type: cell-based, human; details: 10 μM cisplatin, clusterin-overexpressing vs empty vector (Neo) Mel Juso cells
Procedure: Mel Juso melanoma cells stably tranfected with either an empty control vector (Neo) or a vector directing overepression of clusterin were grown in medium containing 10 μM cisplatin. Cell survival was measured using the Cell-titer 96 kits from Promega.

human melanoma cells = test: Apoptotic cell death of human melanoma cells after antisense treatment; assay type: cell-based; details: antisense treatment alone
bcl-xL = bcl-xL expression in clusterin-expressing melanoma cells (Western blotting); assay type: cell-based, human
From the text: While chaperone-like function has been proposed for the clusterin protein, the specific molecular mechanism responsible for clusterin's role in apoptosis remains elusive. In the human melanoma cell line that expressed clusterin at a very low levels, over-expression of clusterin by stable transfection not only led to a marked increase in resistance to a cytotoxic treatment (FIG. 3), but led also to an up-regulation of the anti-apoptotic bcl-2 family member bcl-xL as shown by Western blotting. […] Thus, clusterin regulates the anti-apoptotic bcl-2 family member bcl-xL. Such inhibition is significant because bcl-xL is known to act as an inhibitor of apoptosis (See U.S. Pat. No. 6,182,216 which is incorporated herein by reference in those jurisdictions permitting such incorporation).

clusterin = test: Clusterin expression in human melanoma cells by RT-PCR and western-blot; assay type: cell-based; details: as compared to the scrambled mismatch control
Procedure: Expression of clusterin in two different batches of normal human melanocytes (NHEM 6083 and 2489) and four human melanoma cell lines (518A2, SKMEL-28, Mel-Juso and 607B). Cells were grown in 6 cm dishes and harvested when they were 80-90% confluent. 30 μg of protein per lane was applied onto a 10% SDS-Page gel and probed with a polyclonal goat anti-clusterin antibody. Panceau red stain and an antibody directed against β-actin were used as a loading control. In each case, the antisense inhibitor of clusterin used is based on the advanced antisense chemistry 2′MOE as described in U.S. patent application Ser. No. 10/080,794 and has the sequence of Seq. ID. NO. 4.
FIG. 2 provides a graphic representations of clusterin expression in 518A2 cells after treatment with cisplatin and either an antisense oligonucleotide or a scrambled control. Lip is a Lipofectin control without oligonucleotide. Detection was performed using an antibody directed against clusterin.

607B melanoma cells = test: Cell number of 607B melanoma cells measured photometrically using MTS; assay type: cell-based, human
Procedure: Lipofectin™ (lip) without oligonucleotide was used as a control. Cells numbers in 96 well plates were measured photometrically using MTS (Cell Titer 96™, […]).

518A2 cells = test: Sensitivity of antisense-treated melanoma cells to consecutive cisplatin treatment; assay type: cell-based, human; details: another melanoma cell line (FIG. 2, 518A2), compared to control-mismatch oligonucleotide

| Compound | effectiveness of the chemotherapy agent (cell survival) (Mel Juso melanoma cells) | apoptotic cell death (human melanoma cells) | expression of bcl-xL (bcl-xL) | down-regulation of clusterin on the mRNA level (clusterin; RT-PCR) | down-regulation of clusterin on the protein level (clusterin; western-blot) | cell death (607B melanoma cells; 607B melanoma cell line, antisense treatment alone) | cell counts (607B melanoma cells; 607B melanoma cells, antisense at 250 and 500 nM on two consecutive days, vs scrambled control 100 nM and Lipofectin) | sensitivity of surviving cells to consecutive treatment with cisplatin (518A2 cells) |
| --- | --- | --- | --- | --- | --- | --- | --- | --- |
| N.N.[Cl][Pt][Cl] [cisplatin] | reduced the effectiveness |  |  |  |  |  |  |  |
| cagcagcagagtcttcatcat (CAGCAGCAGAGTCTTCATCAT; sugars from the 5' end e4 d13 e4, all phosphorothioate, methylation of C not given here) [MOE modification of Seq. ID. NO. 4] |  | increase in apoptotic cell death | marked down-regulation | dose dependent down-regulation | dose dependent down-regulation | complete cell death | significantly reduced | increased sensitivity |
